The assay addresses ADAMTS4 (Homo sapiens (Human), UniProt O75173). The assay is described as follows: Selectivity assay for ADAMTS-7 modulators: ADAMTS4 (FRET substrate). The class given is biochemical. The settings on record: ADAMTS4 (R&D 4307-AD) 50 nM, substrate Dabcyl-EEVKAKVQPY-Glu(Edans)-NH2 1 μM, 120 min, 32° C. The method in brief: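 Activity read as rising fluorescence after a FRET substrate is cleaved by human ADAMTS4, with reactions started by substrate addition to wells holding compound or DMSO. Percent inhibition plotted against concentration gave IC50.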

Broadly, the IC50 is the concentration that inhibits the measured activity by half. The low end stands for greater potency in that assay, the high end for weaker potency in that assay.

Some results are limits rather than exact numbers.

Chain of ADAMTS4 (O75173 213-685): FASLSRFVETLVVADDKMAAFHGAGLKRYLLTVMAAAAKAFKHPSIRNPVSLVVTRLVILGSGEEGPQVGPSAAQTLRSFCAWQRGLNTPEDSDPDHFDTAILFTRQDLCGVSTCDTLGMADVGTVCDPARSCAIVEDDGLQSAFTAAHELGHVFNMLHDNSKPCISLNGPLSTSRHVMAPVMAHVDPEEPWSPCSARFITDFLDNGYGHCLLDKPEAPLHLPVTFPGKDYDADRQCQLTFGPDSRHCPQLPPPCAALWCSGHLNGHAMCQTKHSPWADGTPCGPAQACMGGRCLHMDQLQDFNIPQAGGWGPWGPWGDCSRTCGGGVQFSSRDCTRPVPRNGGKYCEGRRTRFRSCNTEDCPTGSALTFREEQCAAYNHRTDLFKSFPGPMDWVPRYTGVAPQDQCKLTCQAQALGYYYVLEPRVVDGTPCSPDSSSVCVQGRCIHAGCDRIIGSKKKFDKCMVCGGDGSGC

`CC(C)(c1ccc(-c2ccccc2C(=O)NC[C@@]2(C3CC3)NC(=O)NC2=O)cc1)C(F)(F)F` [Example 120, N-{[(4R)-4-Cyclopropyl-2,5-Dioxoimidazolidin-4-Yl]Methyl}-4′-(1,1,1-Trifluoro-2-Methylpropan-2-Yl)[Biphenyl]-2-Carboxamide] displayed an IC50 of 35 µM.
As to `O=C1NC(=O)C(CNC(=O)c2ccc(F)cc2-c2ccc(C(F)(F)F)cc2)(c2ncsc2C2CC2)N1` (racemic) [Example 272, Rac-N-{[4-(5-Cyclopropyl-1,3-Thiazol-4-Yl)-2,5-Dioxoimidazolidin-4-Yl]Methyl}-5-Fluoro-4′-(Trifluoromethyl)[Biphenyl]-2-Carboxamide], the IC50 is 7.8 µM.
For the molecule `CC(C)C1(CNC(=O)c2ccccc2-c2ccc(C(F)(F)F)cc2)NC(=O)NC1=O` (racemic) [Example 208, Rac-N-[(4-Isopropyl-2,5-Dioxoimidazolidin-4-Yl)Methyl]-4′-(Trifluoromethyl)[Biphenyl]-2-Carboxamide], the half-inhibitory concentration (IC50) was over 50 µM.
As to `CC(C)(C)C1(CNC(=O)c2ccccc2-c2ccc(C(F)(F)F)cc2)NC(=O)NC1=O` (stereo not drawn) [Example 71, Ent-N-[(4-Tert-Butyl-2,5-Dioxoimidazolidin-4-Yl)Methyl]-4′-(Trifluoromethyl)[Biphenyl]-2-Carboxamide], the IC50 came to 16.3 µM.
For the molecule `Cc1ccc(C(=O)NCC2(c3nccn3C)NC(=O)NC2=O)c(-c2ccc(C3CC3(F)F)cc2)c1` (stereo not drawn) [Example 135, 4′-(2,2-Difluorocyclopropyl)-5-Methyl-N-{[4-(1-Methyl-1H-Imidazol-2-Yl)-2,5-Dioxoimidazolidin-4-Yl]Methyl}[1,1′-Biphenyl]-2-Carboxamide], the IC50 came to 1.3 µM.
The result for `CCc1ccc(-c2cc(F)ccc2C(=O)NC[C@@]2(C3CC3)NC(=O)NC2=O)cc1` [Example 110, N-{[(4R)-4-Cyclopropyl-2,5-Dioxoimidazolidin-4-Yl]Methyl}-4′-Ethyl-5-Fluoro[Biphenyl]-2-Carboxamide] reads 7.9 µM; that for `Cc1nsnc1C1(CNC(=O)c2ccccc2-c2ccc(C(F)(F)F)cc2)NC(=O)NC1=O` (stereo not drawn) [Example 85, Ent-N-{[4-(4-Methyl-1,2,5-Thiadiazol-3-Yl)-2,5-Dioxoimidazolidin-4-Yl]Methyl}-4′-(Trifluoromethyl)[Biphenyl]-2-Carboxamide], 13 µM.
Take `Cc1ccc(-c2ccccc2C(=O)NCC2(c3nccs3)NC(=O)NC2=O)cc1` (stereo not drawn) [Example 201, Ent-N-{[2,5-Dioxo-4-(1,3-Thiazol-2-Yl)Imidazolidin-4-Yl]Methyl}-4′-Methyl[Biphenyl]-2-Carboxamide]: half-maximal inhibition (IC50) was put at 8.1 µM.
Turning to `Cc1nn(C)cc1C1(CNC(=O)c2ccccc2-c2ccc(C(F)(F)F)cc2)NC(=O)NC1=O` (racemic) [Example 60, Rac-N-{[4-(1,3-Dimethyl-1H-Pyrazol-4-Yl)-2,5-Dioxoimidazolidin-4-Yl]Methyl}-4′-(Trifluoromethyl)[Biphenyl]-2-Carboxamide], the IC50 came out at 15 µM.
The molecule `CCC(C)C1(CNC(=O)c2ccccc2-c2ccc(C(F)(F)F)cc2)NC(=O)NC1=O` (stereo not drawn) [Example 38, Diamix-N-[(4-Sec-Butyl-2,5-Dioxoimidazolidin-4-Yl)Methyl]-4′-(Trifluoromethyl)[Biphenyl]-2-Carboxamide] displayed an IC50 of 21 µM.
In turn, `O=C1NC(=O)C(CNC(=O)c2ccc(F)cc2-c2ccc(C(F)(F)F)cc2)(C2(Cl)CC2)N1` (racemic) [Example 282, Rac-N-{[4-(1-Chlorocyclopropyl)-2,5-Dioxoimidazolidin-4-Yl]Methyl}-5-Fluoro-4′-(Trifluoromethyl)[Biphenyl]-2-Carboxamide] had an IC50 of 16 µM.
In the case of `O=C1NC(=O)C(CNC(=O)c2ccc(F)cc2-c2ccc(Cl)cc2)(c2ccnn2C(F)F)N1` (racemic) [Example 257, Rac-4′-Chloro-N-({4-[1-(Difluoromethyl)-1H-Pyrazol-5-Yl]-2,5-Dioxoimidazolidin-4-Yl}Methyl)-5-Fluoro[Biphenyl]-2-Carboxamide] it was 11 µM.
`Cc1ccc(C(=O)NCC2(C3CCC3)NC(=O)NC2=O)c(-c2ccc(C(F)(F)F)cc2)c1` (stereo not drawn) [Example 238, Ent-N-[(4-Cyclobutyl-2,5-Dioxoimidazolidin-4-Yl)Methyl]-5-Methyl-4′-(Trifluoromethyl)[Biphenyl]-2-Carboxamide] displayed an IC50 of 2 µM.
The molecule `Cn1ccnc1C1(CNC(=O)c2ccccc2-c2ccc(C(F)(F)F)nc2)NC(=O)NC1=O` (stereo not drawn) [Example 158, Ent-N-{[4-(1-Methyl-1H-Imidazol-2-Yl)-2,5-Dioxoimidazolidin-4-Yl]Methyl}-2-[6-(Trifluoromethyl)Pyridin-3-Yl]Benzamide] registered an IC50 of 3.05 µM.
Turning to `Cc1cn(C)nc1C1(CNC(=O)c2ccccc2-c2ccc(C(F)(F)F)nc2)NC(=O)NC1=O` (stereo not drawn) [Example 72, Ent-N-{[4-(1,4-Dimethyl-1H-Pyrazol-3-Yl)-2,5-Dioxoimidazolidin-4-Yl]Methyl}-2-[6-(Trifluoromethyl)Pyridin-3-Yl]Benzamide], the IC50 is 6.9 µM.
Take `Cc1c(C2(CNC(=O)c3ccc(F)cc3-c3ccc(C(F)(F)F)cc3)NC(=O)NC2=O)ncn1C` (racemic) [Example 304, Rac-N-{[4-(1,5-Dimethyl-1H-Imidazol-4-Yl)-2,5-Dioxoimidazolidin-4-Yl]Methyl}-5-Fluoro-4′-(Trifluoromethyl)[Biphenyl]-2-Carboxamide]: the IC50 was 3.3 µM.
`Cn1ccnc1C1(CNC(=O)c2ccc(F)cc2-c2ccc(C3CC3(F)F)cc2)NC(=O)NC1=O` (stereo not drawn) [Example 141, 4′-(2,2-Difluorocyclopropyl)-5-Fluoro-N-{[4-(1-Methyl-1H-Imidazol-2-Yl)-2,5-Dioxoimidazolidin-4-Yl]Methyl}[1,1′-Biphenyl]-2-Carboxamide] registered an IC50 of 3.6 µM.
With `Cc1cccc(C(=O)NC[C@@]2(C3CC3)NC(=O)NC2=O)c1-c1ccc(C(F)(F)F)cc1` [Example 109, N-{[(4R)-4-Cyclopropyl-2,5-Dioxoimidazolidin-4-Yl]Methyl}-6-Methyl-4′-(Trifluoromethyl)[Biphenyl]-2-Carboxamide], the IC50 came to 8.7 µM.
In turn, `CC(C)(C)C1(CNC(=O)c2ccccc2-c2ccc(C(F)(F)F)cc2)NC(=O)NC1=O` (racemic) [Example 25, Rac-N-[(4-Tert-Butyl-2,5-Dioxoimidazolidin-4-Yl)Methyl]-4′-(Trifluoromethyl)[Biphenyl]-2-Carboxamide] yielded an IC50 of over 50 µM.
With `O=C1NC(=O)[C@](CNC(=O)c2ccccc2-c2ccc(C3CC3)cc2)(C2CC2)N1` [Example 105, 4′-Cyclopropyl-N-{[(4R)-4-Cyclopropyl-2,5-Dioxoimidazolidin-4-Yl]Methyl}[Biphenyl]-2-Carboxamide], the IC50 was 4.9 µM.
The result for `Cc1ccc(C(=O)NC[C@@]2(C3CC3)NC(=O)NC2=O)c(-c2ccc(C3CC3(F)F)cc2)c1` (stereo partly drawn) [Example 136, N-{[(4R)-4-Cyclopropyl-2,5-Dioxoimidazolidin-4-Yl]Methyl}-4′-(2,2-Difluorocyclopropyl)-5-Methyl[1,1′-Biphenyl]-2-Carboxamide] reads 7.1 µM; that for `Cc1ccc(-c2cc(C)ccc2C(=O)NC[C@@]2(C3CC3)NC(=O)NC2=O)cc1` [Example 22, N-{[(4R)-4-Cyclopropyl-2,5-Dioxoimidazolidin-4-Yl]Methyl}-4′,5-Dimethyl[Biphenyl]-2-Carboxamide], 3.9 µM; that for `O=C1NC(=O)C(CNC(=O)c2ccc(F)cc2-c2ccc(C(F)(F)F)cc2)(c2ncsc2C(F)(F)F)N1` (racemic) [Example 267, Rac-N-({2,5-Dioxo-4-[5-(Trifluoromethyl)-1,3-Thiazol-4-Yl]Imidazolidin-4-Yl}Methyl)-5-Fluoro-4′-(Trifluoromethyl)[Biphenyl]-2-Carboxamide], 19 µM.
As to `Cc1nc(C)c(C2(CNC(=O)c3ccccc3-c3ccc(C(F)(F)F)nc3)NC(=O)NC2=O)s1` (racemic) [Example 34, Rac-N-{[4-(2,4-Dimethyl-1,3-Thiazol-5-Yl)-2,5-Dioxoimidazolidin-4-Yl]Methyl}-2-[6-(Trifluoromethyl)Pyridin-3-Yl]Benzamide], the IC50 amounted to 8.9 µM.
In the case of `CC(F)(F)c1ccc(-c2ccccc2C(=O)NC[C@@]2(C3CC3)NC(=O)NC2=O)cc1` [Example 125, N-{[(4R)-4-Cyclopropyl-2,5-Dioxoimidazolidin-4-Yl]Methyl}-4′-(1,1-Difluoroethyl)[Biphenyl]-2-Carboxamide] it was 8.7 µM.
Consider `O=C1NC(=O)C(CNC(=O)c2ccccc2-c2ccc(C(F)(F)F)nc2)(C2(Cl)CC2)N1` (racemic) [Example 281, Rac-N-{[4-(1-Chlorocyclopropyl)-2,5-Dioxoimidazolidin-4-Yl]Methyl}-2-[6-(Trifluoromethyl)Pyridin-3-Yl]Benzamide], for which the IC50 was 26 µM.
`Cc1ccc(-c2ccccc2C(=O)NCC2(c3nccn3C)NC(=O)NC2=O)cc1` (single isomer, unassigned; ent-4) [Example 146, Ent-4′-Methyl-N-{[4-(1-Methyl-1H-Imidazol-2-Yl)-2,5-Dioxoimidazolidin-4-Yl]Methyl}[Biphenyl]-2-Carboxamide] yielded an IC50 of 1.9 µM.
As for `Cc1ccc(-c2cc(Cl)ccc2C(=O)NCC2(c3nccn3C)NC(=O)NC2=O)cc1` (single isomer, unassigned; ent-5) [Example 153, Ent-5-Chloro-4′-Methyl-N-{[4-(1-Methyl-1H-Imidazol-2-Yl)-2,5-Dioxoimidazolidin-4-Yl]Methyl}[Biphenyl]-2-Carboxamide], inhibition was half-maximal at 0.51 µM (IC50).
The result for `Cn1ccnc1C1(CNC(=O)c2cc(Cl)ccc2-c2ccc(C(F)(F)F)cc2)NC(=O)NC1=O` (single isomer, unassigned; ent-4) [Example 156, Ent-4-Chloro-N-{[4-(1-Methyl-1H-Imidazol-2-Yl)-2,5-Dioxoimidazolidin-4-Yl]Methyl}-4′-(Trifluoromethyl)[Biphenyl]-2-Carboxamide] reads 25 µM; that for `O=C1NC(=O)[C@](CNC(=O)c2ccc(C(F)(F)F)cc2-c2ccc(C(F)(F)F)cc2)(C2CC2)N1` [Example 117, N-{[(4R)-4-Cyclopropyl-2,5-Dioxoimidazolidin-4-Yl]Methyl}-4′,5-Bis(Trifluoromethyl)[Biphenyl]-2-Carboxamide], 61 µM.

Values taken from patent US12398120B2, “Substituted hydantoinamides as ADAMTS7 antagonists” (BAYER AKTIENGESELLSCHAFT, priority 2019, dated 2025).
